Columns and labels:
Format in all cases: in vivo
[1] = test system: mouse colon cancer cell line MC38; experiment: Combination of Compound A and anti-mouse PD-1 antibody in MC38 transplanted wild type C57BL/6JJcl mice (Example 3); conditions: Aspin-Welch's t-test
Description: The MC38 cell suspension was transplanted subcutaneously at 2.0×10^6 cells/0.1 ml to the right chest of 6-week-old C57BL/6JJcl mice (CLEA Japan, Inc.).
(§1) The tumor was grown until reaching a TV of 50 to 300 mm^3 after the transplantation. Degimatic Caliper was used for tumor diameter measurement. The major diameter and the minor diameter of the tumor were measured, and TV was calculated from the following equation.
(§2) TV (mm^3)=major diameter (mm)×minor diameter (mm)×minor diameter (mm)/2
By a stratified random allocation method using TV as an index, 10 mice were allocated to each group. The day when grouping was performed was defined as Day 0.
An electronic balance for animals was used for body weight measurement. The body weight change ratio on the nth day (BWCn) was calculated from the body weight on the nth day (BWn) in accordance with the following equation.
(§3) Body weight change ratio BWCn (%)=(BWn−BW0)/BW0×100
An appropriate amount of water for injection described in the Japanese Pharmacopeia was added for adjusting hypromellose concentration to 0.5 w/v %, and the mixture was then stirred with a stirrer to completely dissolve hypromellose, to prepare a 0.5% aqueous hypromellose solution.
On the first day of administration (day 1), the diluted product was intraperitoneally administered with the dose of 0.05 mg/body of the anti-mouse PD-1 antibody.

[2] = test system: mouse colon cancer cell strain MC38; experiment: Flow cytometric analysis of tumor infiltrating leucocytes in MC38 transplanted mice (Example 1); conditions: Day 7, tumor infiltrating leucocytes, Compound A 25 mg/kg/day po 6 days, Dunnett test
Description: The mouse colon cancer cell strain MC38 was obtained from Dr. Yoshihiro Hayakawa (University of Toyama, Toyama, Japan). The MC38 cell strain was subjected to culture in an RPMI 1640 medium containing 10% fetal bovine serum and then to subculture in an incubator at 37° C. in the presence of 5% CO2 at a frequency of once or twice a week.
The MC38 cell suspension was transplanted subcutaneously at 1.5×10^6 cells/0.1 ml to the right chest of 6-week-old C57BL/6JJcl mice (CLEA Japan, Inc.).
The tumor was grown until reaching a tumor volume (TV) of 80 to 230 mm^3 after the transplantation. Degimatic Caliper was used for tumor diameter measurement. The major diameter and the minor diameter of the tumor were measured, and TV was calculated from the following equation.
as §2
By a stratified random allocation method using TV as an index, 5 animals were allocated to each group. The day when grouping (n=5) was performed was defined as Day 0. […]
For detecting expression of immunity-related factors, flow cytometric analysis was performed for immunological monitoring. […] Thereafter, the isolated lymphocytes were stained with antibodies below, and then, analyzed using Flow Cytometer FACSVerse (BD Bioscience). […]

[3] = test system: mouse colon cancer cell line MC38; experiment: Antitumor effect in MC38 transplanted immune deficient CB17/Icr-Prkdc[scid]/CrlCrlj mice (Example 2)
Description: (§4) The MC38 cell suspension was transplanted subcutaneously at 2.0×10^6 cells/0.1 ml to the right chest of 6-week-old C57BL/6JJcl mice (CLEA Japan, Inc.) or CB17/Icr-Prkdc[scid]/CrlCrlj (Charles River Laboratories Japan Inc.). CB17/Icr-Prkdc[scid]/CrlCrlj mice are mice with immune deficiency due to lack of Tcells and B-cells in the peripheral blood.
as §1, §2
(§5) By a stratified random allocation method using TV as an index, ten C57BL/6JJcl mice were allocated to each group, and five CB17/Icr-Prkdc [scid]/CrlCrlj mice were allocated to each group. The day when grouping was performed was defined as Day 0. An electronic balance for animals was used for body weight measurement. The body weight change ratio on the nth day (BWCn) was calculated from the body weight on the nth day (BWn) in accordance with the following equation.
as §3
(§6) An appropriate amount of water for injection described in the Japanese Pharmacopeia was added for adjusting hypromellose concentration to 0.5 w/v %, and the mixture was then stirred with a stirrer to completely dissolve hypromellose, to prepare a 0.5% aqueous hypromellose solution. Benzoic acid salt of Compound A was ground with an agate mortar, and then suspended to a predetermined concentration with the 0.5% aqueous hypromellose solution, and ultrasonic treatment was performed to obtain a homogeneous suspension. The suspension containing Compound A was orally administered once a day for 21 consecutive days at a dose of 25 mg/kg/day. The dosage is indicated based on the free form of the Compound A.

[4] = test system: mouse colon cancer cell line MC38; experiment: Antitumor effect in MC38 transplanted wild type (immune proficient) C57BL/6JJcl mice (Example 2)
Description: as §4, §1, §2, §5, §3, §6

[5] = immune deficient CB17/Icr-Prkdc[scid]/CrlCrlj mice, 25.0 mg/kg/day qd Day 1-21 po
[6] = wild type C57BL/6JJcl mice, 25.0 mg/kg/day qd Day 1-21 po

CC(C)(O)Cc1ccc(-c2ccc(C(=O)N3CC[C@H](N)C3)cc2-c2ccc(C#N)c(F)c2)c(F)c1 [Compound A, 4-[5-[(3S)-3-aminopyrrolidine-1-carbonyl]-2-[2-fluoro-4-(2-hydroxy-2-methyl-propyl)phenyl]phenyl]-2-fluoro-benzonitrile]
antitumor effect: TV on Day 22 as compared to the control group [1]: significantly lower TV
ratio of gMDSC (CD45 positive, CD90.2 negative, CD11b positive, Ly6G positive cells) in leucocytes as compared to the control group [2]: significantly lower
Body weight change Day 22 Mean ± SE [3, 5]: 9.2 ± 4.2%
Tumor volume Day 22 Mean ± SE [3, 5]: 2431.6 ± 359.7 mm^3
antitumor effect: TV on Day 22 as compared to the control group ([3]; immune deficient mice, Aspin-Welch's t-test): didn't exhibit any antitumor effect
Body weight change Day 22 Mean ± SE [4, 6]: 2.6 ± 1.2%
Tumor volume Day 22 Mean ± SE [4, 6]: 969.3 ± 114.7 mm^3
antitumor effect: TV on Day 22 as compared to the control group ([4]; wild type mice, Aspin-Welch's t-test): significantly lower TV

Source: patent publication US20250049757A1, “COMBINATORY THERAPY FOR CANCER USING BIPHENYL COMPOUND AND IMMUNE CHECKPOINT MOLECULE REGULATOR” (Taiho Pharmaceutical Co. Ltd., priority 2021, published 2025)
